Assay results taken from patent US10071095B2, “1,2,4-triazolo [4,3-A] pyridine derivatives and their use for the treatment of neurological and psychiatric disorders” (JANSSEN PHARMACEUTICALS, INC., priority 2009, dated 2018).

Each compound was assayed against T1, human mGluR2 receptor (Homo sapiens, UniProt Q14416) (assay: [35S]GTPγS binding assay, positive allosteric modulation (GTPγS-PAM) in presence of EC20 glutamate). Conditions: in presence of glutamate at EC20; average pEC50 if more experiments; ‡ means tested once.
T1 construct: expressed in transfected cells; host or cells: CHO cells
T1 sequence (Q14416 19-872): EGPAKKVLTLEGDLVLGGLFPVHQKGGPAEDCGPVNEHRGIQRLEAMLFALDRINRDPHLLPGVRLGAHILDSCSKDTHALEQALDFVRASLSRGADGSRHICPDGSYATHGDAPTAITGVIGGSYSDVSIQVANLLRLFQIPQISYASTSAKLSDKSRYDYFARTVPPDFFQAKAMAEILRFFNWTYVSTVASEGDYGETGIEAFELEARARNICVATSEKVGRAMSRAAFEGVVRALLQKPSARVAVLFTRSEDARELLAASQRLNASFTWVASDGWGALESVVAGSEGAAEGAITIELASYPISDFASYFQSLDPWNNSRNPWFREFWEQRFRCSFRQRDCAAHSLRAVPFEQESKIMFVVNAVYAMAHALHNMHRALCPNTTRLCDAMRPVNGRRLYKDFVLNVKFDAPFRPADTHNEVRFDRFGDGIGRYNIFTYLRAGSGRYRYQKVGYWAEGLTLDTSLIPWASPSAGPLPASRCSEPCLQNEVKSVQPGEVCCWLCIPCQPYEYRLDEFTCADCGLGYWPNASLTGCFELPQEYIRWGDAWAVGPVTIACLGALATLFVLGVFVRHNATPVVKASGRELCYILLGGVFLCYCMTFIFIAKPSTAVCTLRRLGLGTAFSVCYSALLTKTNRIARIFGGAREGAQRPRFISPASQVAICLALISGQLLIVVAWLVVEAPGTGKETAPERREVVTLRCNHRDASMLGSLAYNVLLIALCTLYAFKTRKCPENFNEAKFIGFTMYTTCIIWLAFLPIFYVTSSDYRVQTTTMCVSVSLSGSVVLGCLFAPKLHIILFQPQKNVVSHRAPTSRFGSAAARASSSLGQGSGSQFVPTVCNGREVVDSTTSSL
Assay type: biochemical
Description: [^35S]GTPγS Binding Assay
The [^35S]GTPγS binding assay is a functional membrane-based assay used to study G-protein coupled receptor (GPCR) function whereby incorporation of a non-hydrolysable form of GTP, [^35S]GTPγS (guanosine 5′-triphosphate, labelled with […] ^35S), is measured. The G-protein α subunit catalyzes the exchange of guanosine 5′-diphosphate (GDP) by guanosine triphosphate (GTP) and on activation of the GPCR by an agonist, [^35S]GTPγS, becomes incorporated and cannot be cleaved to continue the exchange cycle (Harper (1998) Current Protocols in Pharmacology 2.6.1-10, John Wiley & Sons, Inc.). […] Here we describe the use of the [^35S]GTPγS binding assay using membranes from cells transfected with the human mGluR2 receptor and adapted from Schaffhauser et al. ((2003) Molecular Pharmacology 4:798-810) for the detection of the positive allosteric modulation (PAM) properties of the compounds of this invention.
CHO-cells were cultured to pre-confluence and stimulated with 5 mM butyrate for 24 h, prior to washing in PBS, and then collected by scraping in homogenisation buffer (50 mM Tris-HCl buffer, pH 7.4, 4° C.). Cell lysates were homogenized briefly using an ultra-turrax homogenizer. The homogenate was centrifuged at 16,000 RPM (Sorvall RC-5C plus rotor SS-34) for 10 minutes and the supernatant discarded. The pellet was resuspended in 5 mM Tris-HCl, pH 7.4 and centrifuged again (18,000 RPM, 20 min, 4° C.). The final pellet was resuspended in 50 mM Tris-HCl, pH 7.4 and stored at −80° C. in appropriate aliquots before use. Protein concentration was determined by the Bradford method (Bio-Rad, USA) with bovine serum albumin as standard.
Measurement of mGluR2 positive allosteric modulatory activity of test compounds was performed as follows. Test compounds and glutamate were diluted in assay buffer containing 10 mM HEPES acid, 10 mM HEPES salt, pH 7.4, 100 mM NaCl, 3 mM MgCl2 and 10 μM GDP. Human mGlu2 receptor-containing membranes were thawed on ice and diluted in assay buffer supplemented with 14 μg/ml saponin. Membranes were pre-incubated with compound alone or together with a predefined (˜EC20) concentration of glutamate (PAM assay) for 30 min at 30° C. After addition of [^35S]GTPγS (f.c. 0.1 nM) microplates were shaken briefly and further incubated to allow [^35S]GTPγS incorporation on activation (30 minutes, 30° C.). Final assay mixtures contained 7 μg of membrane protein in 10 mM HEPES acid, 10 mM HEPES salt, pH 7.4, 100 mM NaCl, 3 mM MgCl2, 10 µM GDP and 10 μg/ml saponin. Total reaction volume was 200 μl. Reactions were terminated by rapid filtration through Unifilter-96 GF/B filter plates (Packard, Meriden, Conn.) using a 96-well Packard filtermate harvester. Filters were washed 6 times with ice-cold 10 mM NaH2PO4/10 mM Na2HPO4, pH 7.4. Filters were then air-dried, and 40 μl of liquid scintillation cocktail (Microscint-O) was added to each well. Membrane-bound radioactivity was counted in a Microplate Scintillation and Luminescence Counter from Packard.
The concentration-response curves of representative compounds of the present invention-obtained in the presence of EC20 of mGluR2 agonist glutamate to determine positive allosteric modulation (PAM)—were generated using the Lexis software interface (developed at J&J).
For `Clc1c(N2CCC(c3ccccc3)CC2)ccn2c(CCC3CC3)nnc12` [compound 146], the “GTPγS - hR2 PAM pEC50” value was 7.02.
In the case of `O=C1OC2(CCN(c3ccn4c(CC5CC5)nnc4c3Cl)CC2)c2ccccc21` [compound 149], the “GTPγS - hR2 PAM pEC50” value is reported as 6.5‡.
With `CC(C)OCc1nnc2c(C(F)(F)F)c(N3CCC(Oc4ccccn4)CC3)ccn12` [compound 150] the “GTPγS - hR2 PAM pEC50” value was 6.97‡.
For `FC(F)(F)c1c(N2CC[C@H](Oc3ccccc3)C2)ccn2c(CC3CC3)nnc12` [compound 152], the “GTPγS - hR2 PAM pEC50” value was 6.78.
`Cc1c(N2CCC3(CC2)OC(C)(C)c2ccccc23)ccn2c(CC3CC3)nnc12` [compound 154] was tested, and the “GTPγS - hR2 PAM pEC50” value was 7.13.
For `CC(C)OCc1nnc2c(C(F)(F)F)c(N3CCN(c4ccccc4)CC3)ccn12` [compound 155], the “GTPγS - hR2 PAM pEC50” value was 6.83‡.
In the case of `Clc1c(N2CCN(c3coc4ccccc34)CC2)ccn2c(CC3CC3)nnc12` [compound 157], the “GTPγS - hR2 PAM pEC50” value is reported as 6.18.
For `FC(F)(F)C1(OCc2cccnc2)CCN(c2ccn3c(CC4CC4)nnc3c2Cl)CC1` [compound 158], the “GTPγS - hR2 PAM pEC50” value was 6.14.
`Clc1c(N2CCC3(CC2)COc2cccnc23)ccn2c(CC3CC3)nnc12` [compound 161] was tested, and the “GTPγS - hR2 PAM pEC50” value was 5.68‡.
In the case of `Cc1cccnc1OC1CCN(c2ccn3c(COC(C)C)nnc3c2C(F)(F)F)CC1` [compound 162], the “GTPγS - hR2 PAM pEC50” value is reported as 6.93.
For `FC(F)(F)C(c1ccccc1)N1CCN(c2ccn3c(CC4CC4)nnc3c2Cl)CC1` (stereo not drawn) [compound 163], the “GTPγS - hR2 PAM pEC50” value was 6.97‡.
With `Clc1c(N2CCN(C3COc4ccccc4C3)CC2)ccn2c(CC3CC3)nnc12` (stereo not drawn) [compound 164] the “GTPγS - hR2 PAM pEC50” value was 6.46.
`Cc1cc(OC2CCN(c3ccn4c(CC5CC5)nnc4c3C(F)(F)F)CC2)ccn1` [compound 165] was tested, and the “GTPγS - hR2 PAM pEC50” value was 6.41.
With `Fc1ccc(N2C[C@@H]3CN(c4ccn5c(CC6CC6)nnc5c4C(F)(F)F)C[C@@H]3C2)c(F)c1` [compound 166] the “GTPγS - hR2 PAM pEC50” value was 7.22.
In the case of `FC(F)(F)c1c(N2CCC(Oc3cccnc3)CC2)ccn2c(CC3CC3)nnc12` [compound 167], the “GTPγS - hR2 PAM pEC50” value is reported as 6.47‡.
For `CC1CN(c2ccn3c(CC4CC4)nnc3c2Cl)CCC1c1ccccc1` (stereo not drawn) [compound 168], the “GTPγS - hR2 PAM pEC50” value was 7.22.
`CC1CN(c2ccn3c(CC4CC4)nnc3c2C(F)(F)F)CCC1c1ccccc1` (stereo not drawn) [compound 169] was tested, and the “GTPγS - hR2 PAM pEC50” value was 7.77‡.
In the case of `Clc1c(N2CCC(Oc3cccnc3)CC2)ccn2c(CC3CC3)nnc12` [compound 170], the “GTPγS - hR2 PAM pEC50” value is reported as 5.84‡.
In the case of `Clc1c(N2CCC(c3ccccc3)C2)ccn2c(CC3CC3)nnc12` (stereo not drawn) [compound 173], the “GTPγS - hR2 PAM pEC50” value is reported as 6.32‡.
`FC(F)(F)c1c(N2CCC(c3ccccc3)C2)ccn2c(CC3CC3)nnc12` (stereo not drawn) [compound 174] was tested, and the “GTPγS - hR2 PAM pEC50” value was 5.91‡.
`FC(F)(F)c1c(N2CCC(Nc3ccccc3)CC2)ccn2c(CC3CC3)nnc12` [compound 175] was tested, and the “GTPγS - hR2 PAM pEC50” value was 6.33.
With `Fc1ccccc1NC1CCN(c2ccn3c(CC4CC4)nnc3c2Cl)CC1` [compound 176] the “GTPγS - hR2 PAM pEC50” value was 6.3.
With `CC(C)(C)Cc1nnc2c(C(F)(F)F)c(N3CCC(c4ccccc4)CC3)ccn12` [compound 177] the “GTPγS - hR2 PAM pEC50” value was 7.67.
With `Fc1cc(F)cc(CN2CCN(c3ccn4c(CC5CC5)nnc4c3Cl)CC2)c1` [compound 179] the “GTPγS - hR2 PAM pEC50” value was 5.79‡.
For `Fc1ccccc1NC1CCN(c2ccn3c(CC4CC4)nnc3c2C(F)(F)F)CC1` [compound 183], the “GTPγS - hR2 PAM pEC50” value was 7.08.
With `FC(F)(F)c1c(N2CCC(c3ccccc3)CC2)ccn2c(CC3CCC3)nnc12` [compound 185] the “GTPγS - hR2 PAM pEC50” value was 8.26.
In the case of `Fc1ccc(N2C[C@@H]3CN(c4ccn5c(CC6CC6)nnc5c4Cl)C[C@@H]3C2)c(F)c1` [compound 186], the “GTPγS - hR2 PAM pEC50” value is reported as 7.27.
In the case of `Cc1c(N2CCC(c3ccccc3)(C(F)(F)F)CC2)ccn2c(CC3CC3)nnc12` [compound 187], the “GTPγS - hR2 PAM pEC50” value is reported as 6.19.
For `Fc1ccc(N2CCCC3(C2)CN(c2ccn4c(CC5CC5)nnc4c2C(F)(F)F)C3)c(F)c1` [compound 188], the “GTPγS - hR2 PAM pEC50” value was 8‡.
`Fc1ccccc1NC1CN(c2ccn3c(CC4CC4)nnc3c2C(F)(F)F)C1` [compound 189] was tested, and the “GTPγS - hR2 PAM pEC50” value was 6.4.
`Fc1ccccc1NC1CN(c2ccn3c(CC4CC4)nnc3c2Cl)C1` [compound 190] was tested, and the “GTPγS - hR2 PAM pEC50” value was 6.5.
In the case of `C[C@H]1CN(c2ccn3c(CC(F)(F)F)nnc3c2Cl)CCN1c1cc(F)cc(F)c1` [compound 191], the “GTPγS - hR2 PAM pEC50” value is reported as 6.76.
For `C[C@@H]1CN(c2ccn3c(CC(F)(F)F)nnc3c2Cl)CCN1c1cc(F)cc(F)c1` [compound 192], the “GTPγS - hR2 PAM pEC50” value was 6.63.
For `CC1(c2ccccc2F)CCN(c2ccn3c(CC4CC4)nnc3c2C(F)(F)F)CC1` [compound 193], the “GTPγS - hR2 PAM pEC50” value was 8.26.
In the case of `CC1(c2ccc(F)cc2)CCN(c2ccn3c(CC4CC4)nnc3c2C(F)(F)F)CC1` [compound 194], the “GTPγS - hR2 PAM pEC50” value is reported as 7.69.
`Fc1ccc(C2CCN(c3ccn4c(CC5CC5)nnc4c3C(F)(F)F)CC2)c(F)c1` [compound 195] was tested, and the “GTPγS - hR2 PAM pEC50” value was 7.98.
`Fc1ccc(N2CCN(c3ccn4c(CC5CC5)nnc4c3C(F)(F)F)CC2)c(F)c1` [compound 196] was tested, and the “GTPγS - hR2 PAM pEC50” value was 7.06.
In the case of `CC1(c2cccc(F)c2)CCN(c2ccn3c(CC4CC4)nnc3c2C(F)(F)F)CC1` [compound 197], the “GTPγS - hR2 PAM pEC50” value is reported as 7.82‡.
For `FC(F)(F)c1c(N2CCC(c3cccnc3)CC2)ccn2c(CC3CC3)nnc12` [compound 198], the “GTPγS - hR2 PAM pEC50” value was 6.29‡.
With `Cc1cc(C2CCN(c3ccn4c(CC5CC5)nnc4c3C(F)(F)F)CC2)ccn1` [compound 199] the “GTPγS - hR2 PAM pEC50” value was 6.8.
`Fc1ccc(N2CC3(CCN(c4ccn5c(CC6CC6)nnc5c4C(F)(F)F)CC3)C2)c(F)c1` [compound 201] was tested, and the “GTPγS - hR2 PAM pEC50” value was 6.9.
`Fc1ccc(N2CCC3(CCN(c4ccn5c(CC6CC6)nnc5c4C(F)(F)F)CC3)C2)c(F)c1` [compound 202] was tested, and the “GTPγS - hR2 PAM pEC50” value was 7.86‡.
With `Fc1ccc(NC2CCN(c3ccn4c(CC5CC5)nnc4c3C(F)(F)F)CC2)c(F)c1` [compound 203] the “GTPγS - hR2 PAM pEC50” value was 6.73.
`N#Cc1c(N2CCC(c3ccccc3)CC2)ccn2c(-c3ccccc3)nnc12` [compound 205] was tested, and the “GTPγS - hR2 PAM pEC50” value was 6.61‡.
In the case of `Fc1ccc(N2CC3(CCN(c4ccn5c(CC6CC6)nnc5c4Cl)CC3)C2)c(F)c1` [compound 210], the “GTPγS - hR2 PAM pEC50” value is reported as 6.5.
In the case of `O=C1N(c2ccc(F)cc2F)CC12CCN(c1ccn3c(CC4CC4)nnc3c1Cl)CC2` [compound 213], the “GTPγS - hR2 PAM pEC50” value is reported as 6.03‡.
With `Fc1ccc(CN2CCN(c3ccn4c(CC5CC5)nnc4c3Cl)CC2)c(F)c1` [compound 215] the “GTPγS - hR2 PAM pEC50” value was 5.6‡.
In the case of `FC(F)(F)c1c(N2CCN(CCc3ccccc3)CC2)ccn2c(CC3CC3)nnc12` [compound 216], the “GTPγS - hR2 PAM pEC50” value is reported as 6.68.
For `FC(F)(F)c1cccc(CN2CCN(c3ccn4c(CC5CC5)nnc4c3Cl)CC2)c1` [compound 218], the “GTPγS - hR2 PAM pEC50” value was 6.05‡.
`FC(F)(F)C1CCC(N2CCN(c3ccn4c(CC5CC5)nnc4c3Cl)CC2)CC1` (stereo not drawn) [compound 223] was tested, and the “GTPγS - hR2 PAM pEC50” value was 6.03‡.
For `Fc1ccc(CN2CCN(c3ccn4c(CC5CC5)nnc4c3C(F)(F)F)CC2)c(F)c1` [compound 227], the “GTPγS - hR2 PAM pEC50” value was 6.31‡.
With `FC(F)(F)c1c(N2CCC(NCc3ccccc3)CC2)ccn2c(CC3CC3)nnc12` [compound 230] the “GTPγS - hR2 PAM pEC50” value was 5.61‡.

Same assay, conditions: in presence of glutamate at EC20; average pEC50 if more experiments; ‡ means tested once; read-out: GTPγS - hR2 PAM pEC50 (converted)
Work on `FC(F)(F)c1c(N2CCC3(CC2)OC(F)(F)c2ccccc23)ccn2c(CC3CC3)nnc12` [compound 147, 1′-[3-cyclopropylmethyl-8-(trifluoromethyl)[1,2,4]triazolo[4,3-a]pyridin-7-yl]-3,3-difluoro-3H-spiro[benzo[c]furan-1,4′-piperidine]] yielded an EC50 of 245 nM.
In the case of `CC1(C)OC2(CCN(c3ccn4c(CC5CC5)nnc4c3C(F)(F)F)CC2)c2ccc(F)cc21` [compound 200, 1′-[3-(Cyclopropylmethyl)-8-(trifluoromethyl)-1,2,4-triazolo[4,3-a]pyridin-7-yl]-5-fluoro-3,3-dimethyl-spiro[isobenzofuran-1(3H),4′-piperidine]], the EC50 is reported as 3.55 nM.
